{"source": "patent US12390447B2", "about": "“Sirtuin 6 protein deacylase (SIRT6) activators” (Wisconsin Alumni Research Foundation, priority 2019, dated 2025)", "target": "T1, SIRT1 (Homo sapiens, UniProt Q96EB6)", "T1 sequence (Q96EB6 1-747)": "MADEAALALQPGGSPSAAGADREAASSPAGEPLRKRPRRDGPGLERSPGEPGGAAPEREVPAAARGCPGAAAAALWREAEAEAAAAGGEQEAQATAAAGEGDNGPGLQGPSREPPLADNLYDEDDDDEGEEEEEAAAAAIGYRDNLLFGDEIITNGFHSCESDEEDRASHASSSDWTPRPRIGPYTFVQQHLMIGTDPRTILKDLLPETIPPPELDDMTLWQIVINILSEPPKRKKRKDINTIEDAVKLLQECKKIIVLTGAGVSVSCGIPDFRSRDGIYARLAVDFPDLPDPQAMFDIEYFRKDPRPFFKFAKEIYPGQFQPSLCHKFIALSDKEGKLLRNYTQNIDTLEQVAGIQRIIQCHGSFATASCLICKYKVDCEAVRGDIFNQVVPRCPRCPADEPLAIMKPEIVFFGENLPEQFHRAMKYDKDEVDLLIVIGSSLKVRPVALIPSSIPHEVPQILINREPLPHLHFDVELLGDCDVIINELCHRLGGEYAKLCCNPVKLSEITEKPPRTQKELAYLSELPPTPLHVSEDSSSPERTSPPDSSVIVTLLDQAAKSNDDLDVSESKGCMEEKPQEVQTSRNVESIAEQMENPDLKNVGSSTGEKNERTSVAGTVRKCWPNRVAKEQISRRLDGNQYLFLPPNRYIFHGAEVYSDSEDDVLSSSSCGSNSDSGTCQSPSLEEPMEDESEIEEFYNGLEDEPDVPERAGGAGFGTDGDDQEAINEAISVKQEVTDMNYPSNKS", "assay": "SIRT1 deacetylase activity against H3K9ac peptide", "assay_type": "biochemical", "conditions": "400 μM compound", "method": "FIGS. 1A-F illustrate the identification of novel SIRT6 activators. (1A) Compound libraries BML-2803, BML-2800, and an additional set of 178 molecules were screened at 100 μM for their ability to stimulate SIRT6 (1 μM) deacetylation of H3K9ac peptide (20 μM) in the presence of 0.5 mM NAD^+. SIRT6 activity was measured by HPLC quantification of H3K9ac and deacetylated product (inset) and fold activations relative to DMSO control were determined and compiled. (1B) Fold-activation of SIRT6 (1 μM) determined in the presence of either 0-400 μM CL4, 0-150 μM TTNPB, 0-100 μM Lysophosphatidic acid (LPA), or 0-200 μM linoleoylglycine (LGly). Maximum fold-activation and EC50 determined by sigmoidal curve fit. […] Constants Km, H3K9ac and kcat were determined by fitting data to Michaelis-Menten equation. (1D) Fold-activations of SIRT1 (0.1 μM), SIRT2 (0.2 μM), SIRT3 (1 μM), SIRT5 (2 μM), and SIRT6 (1 μM) determined in the presence of CL4 (100 μM), TTNPB (50 μM), and LPA (50 μM) relative to DMSO control against 20 μM H3K9ac peptide and 0.5 mM NAD^+. […]\nAll sirtuin deacylation assays were carried out at 37° C. in 20 mM potassium phosphate pH 7.5 with 0.5 mM NAD^+, 10% DMSO, and 20 μM H3K9ac or H3K9myr peptides, unless otherwise noted in legend, and quenched by the addition of 2% TFA final. […] The product and substrate peaks were quantified and ratio of these allowed for quantification of product formation. […]", "data": [{"smiles": "O=C(O)c1ccc2c(c1)C(=O)N(c1ccc(N(C(=O)c3c(Cl)cc(Cl)cc3Cl)C(=O)c3c(Cl)cc(Cl)cc3Cl)c(Cl)c1)C2=O", "note": "[CL-5D, 2-(3-chloro-4-(2,4,6-trichloro-N-(2,4,6-trichlorobenzoyl)benzamido)phenyl)-1,3-dioxoisoindoline-5-carboxylic acid]", "values": [{"measurement": "SIRT1 deacetylase activity at high activator concentration", "result": "inhibited"}]}]}
